The values that follow come from patent publication US5348980A, “Enantiomers derived from (S)-2-amino-2-(3,4-dichlorobenzyl)-1-propanol, their use and method of preparation” (Institute de Recherche Jouveinal, priority 1992, dated 1994).

Structures can show the parent of a compound that is named as a salt.

For assay [1], the system named is bronchoconstriction caused by 100 μmol/kg of histamine. Put plainly: Histamine-induced bronchoconstriction test (Konzett and Rossler), i.v. administration. The following applies: for ED50: Cavia porcellus, iv. It counts as in vivo, guinea pigs. The text has this: (§1) Furthermore, the antihistaminic properties were studied in guinea pigs by the bronchoconstriction test performed according to the method of H. Konzett and R. Rossler (Arch. Exp. Path. Pharmak.--Naunym Schmiedeberg - 195, 71-74, 1940).
(§2) The products of the invention were studied in this test after administration in solution or in suspension via the intravenous and intraduodenal routes, and also in powder form via the intranasal route.
(§3) Irrespective of the administration route, the preparation of the animals employed in the test consists in first anesthetizing male guinea pigs weighing 350 to 400 g by intraperitoneal (i.p.) injection of a sterile and isotonic solution containing 25% (w/v.) of ethyl carbamate on the basis of 6.0 ml/kg, and in then fitting the animals with a tracheal cannula to permit measurement of the pulmonary pressure, a cannula in the right jugular vein for the intravenous (i.v.) administration of solution, and also a cannula in the left carotid artery for qualitative observation of the blood pressure.
(§4) The animals are then connected to a pump (Harvard, ref. 50-1718) in order to maintain an artificial ventilation at a frequency of 60 insufflations per minute; the intratracheal pressure is recorded by an assembly comprising a transducer, an amplifier and a recorder (Gould, respective refs.: PLOEZ, 13-4615-50 and 8188-G4400-06).
(§5) Fitted in this way, the animals are left undisturbed for 10 minutes before the beginning of the actual experiment, which is carried out in different ways according to the administration route envisaged.
In base form, the test products are dissolved in an isotonic solution (0.9% NaCl) containing 10% (v/v) of Transcutol (R). Dilutions are performed by adding isotonic solution. In salt, in particular hydrochloride, form, the solutions are prepared in the isotonic solution.
The treatment of the animals consists of a series of administrations of histamine dihydrochloride solution on the basis of 100 μmol/kg before and after treatment with the solution of test product, which is carried out according to the following time schedule:
t=-20 minutes - histamine (100 μmol/kg)
t=-10 minutes - ditto control
t=0 - injection of the test product
t=+10 minutes - histamine (100 μmol/kg)
(§6) - Calculation and expression of the results:
(§7) For each administration route and for each time of administration of histamine, the activity of the products is expressed as the percentage change in amplitude of bronchoconstriction, calculated relative to that produced by the "control" administration of histamine which precedes the administration of the test product. The % change is calculated according to the formula: [formula] in which: Bc(tx) represents the amplitude of the bronchoconstriction in mm at time x,
(§8) Bo(tx) the amplitude of the base-line respiration in mm at time x,
(§9) Bc(to) and Bo(to) the corresponding amplitudes in mm on receipt of the "control" administration of histamine which precedes that of the test product.
(§10) The inhibitory activity of the test products on histamine-induced bronchoconstriction is expressed at different times of the studies as their ED50, which is the effective dose of product, expressed in μmol/kg, capable of inhibiting 50% of the histamine-induced bronchoconstriction at the time in question.
(§11) Failing this expression, the results are expressed as a % change at the time in question and for a given concentration of the test product. Under these conditions, a positive percentage corresponds to a potentiating effect on bronchoconstriction and, conversely, a negative percentage to an inhibitory effect.
(§12) Statistical analyses of the results were carried out by the Student t test. A value of p<0.05 is considered significant.
(§13) The compounds of the invention described in Examples 1 and 2 were employed in these tests. In addition, as a comparative product for the eutomer of Example 1, the racemic (R,S) compound corresponding to it, and which is described and prepared in Example 7 of U.S. Pat. No. 4,994,617, was employed. […]

The test system is the same in assay [2]. Put plainly: Histamine-induced bronchoconstriction test (Konzett and Rossler), intraduodenal (i.d.) administration. It counts as in vivo, guinea pigs. The following applies: for ED50: Cavia porcellus; for ED50, inhibition of histamine-induced bronchoconstriction, t = 20': 20 min.
Excerpt: as §1, §2, §3, §4, §5
In base form, the test products are suspended in a solution containing 1% w/v of carboxymethylcellulose (CMC), and, in salt form, they are dissolved in an isotonic solution before being administered via a cannula whose end is placed in the animal's duodenum.
The time schedule for the successive administrations of histamine via the i.v. route and that for the test solution via the i.d. route are identical to that described above in a).
as §6, §7, §8, §9, §10, §11, §12, §13

Assay [3] deals with bronchoconstriction caused by ovalbumin in the sensitized animal. Put plainly: Inhibition of ovalbumin-induced anaphylactic bronchoconstriction in sensitized guinea pigs, oral. The following applies: Cavia porcellus, 1 h, intratracheal pressure after 60 minutes, read-out: ED50 inhibiting 50% of ovalbumin-induced bronchoconstriction. The format is in vivo. As to the method:
The technique performed consists in previously sensitizing guinea pigs weighing 250 to 300 g by two intraperitoneal injections, separated by an interval of 24 hours, of 0.5 ml of a sterile suspension of physiological saline (0.9% NaCl) containing 20 μg of ovalbumin (Grade V; Sigma) and 100 mg of aluminum hydroxide Al(OH)3. At the same time, unsensitized control animals are treated with two injections of suspension not containing ovalbumin. The actual experiment is performed after a period needed for the sensitization of the animals, which is between 14 and 21 days. It is generally arrived at after 18 days, and consists in first administering increasing quantities of the test product in solution in water orally to groups of 5 animals, on the basis of 0.5 to 1.0 ml per animal, corresponding to doses of 1 to 10 μmol/kg of product. The animals are then anesthetized 50 minutes after this administration by an intraperitoneal injection of a solution of urethane. […] After 60 minutes, the intratracheal pressure measured in mm of Hg is determined for each animal of the test groups and those of the control group. These measurements enable the extent of the inhibition of bronchoconstriction produced by the test product to be determined. […]

Where [4] appears, read: 10 min, t = 10', read-out: ED50, inhibition of histamine-induced bronchoconstriction, t = 10'.
[5] abbreviates: 0.5 h, t = 30', read-out: ED50, inhibition of histamine-induced bronchoconstriction, t = 30'.
Setting [6] is: 40 min, t = 40', read-out: ED50, inhibition of histamine-induced bronchoconstriction, t = 40'.
The mark [7] stands for this setting: 50 min, t = 50', read-out: ED50, inhibition of histamine-induced bronchoconstriction, t = 50'.
The mark [8] stands for this setting: 1 h, t = 60', read-out: ED50, inhibition of histamine-induced bronchoconstriction, t = 60'.

With `C=CCN(C)[C@](C)(CO)Cc1ccc(Cl)c(Cl)c1` [Example 2, base, (S)-(+)-N-allyl-2-methylamino-2-(3,4-dichlorobenzyl)-1-propanol], the ED50 (usually the midpoint of the dose-response relation) in assay [1] (setting [4]) stood at 1.27 µmol/kg; in assay [1] (20 min, t = 20', read-out: ED50, inhibition of histamine-induced bronchoconstriction, t = 20') it was 0.93 µmol/kg; in assay [1] (setting [5]) it was 0.74 µmol/kg; in assay [1] (setting [6]), 0.96 µmol/kg; in assay [1] (setting [7]), 1.01 µmol/kg; in assay [1] (setting [8]) it was 0.76 µmol/kg. Further, the median effective dose (ED50) in assay [2] (setting [5]) stood at 0.59 µmol/kg; in assay [2] (setting [6]), 0.65 µmol/kg; in assay [2] (setting [7]) it was 0.63 µmol/kg; in assay [2] (setting [8]), 0.62 µmol/kg. Also, the “ED50, inhibition of histamine-induced bronchoconstriction, t = 20'” value in assay [2] was determined as 1.45 µmol/kg.

On to `C=CCN(C)[C@](C)(CO)Cc1ccc(Cl)c(Cl)c1` [Example 2, hydrochloride, (S)-(+)-N-allyl-2-methylamino-2-(3,4-dichlorobenzyl)-1-propanol], for which the median effective dose (ED50) in assay [3] was 1.84 µmol/kg; in assay [2] (setting [4]), 1.59 µmol/kg. Besides, the “ED50, inhibition of histamine-induced bronchoconstriction, t = 10'” value in assay [1] (t = 10', 10 min) came out at 1.68 μmol/kg. Also, the “ED50, inhibition of histamine-induced bronchoconstriction, t = 20'” value was determined as 0.70 µmol/kg in assay [1] (t = 20', 20 min) and 0.42 µmol/kg in assay [2]. Besides, the “ED50, inhibition of histamine-induced bronchoconstriction, t = 30'” value in assay [1] (t = 30', 30 min) amounted to 0.58 µmol/kg; in assay [2] (t = 30', 30 min) it was 0.33 µmol/kg. The “ED50, inhibition of histamine-induced bronchoconstriction, t = 40'” value in assay [1] (t = 40', 40 min) worked out at 0.57 µmol/kg; in assay [2] (t = 40', 40 min) it was 0.48 µmol/kg. Moreover, the “ED50, inhibition of histamine-induced bronchoconstriction, t = 50'” value turned out to be 0.51 µmol/kg in assay [1] (t = 50', 50 min) and 0.51 µmol/kg in assay [2] (t = 50', 50 min). Further, the “ED50, inhibition of histamine-induced bronchoconstriction, t = 60'” value in assay [1] (t = 60', 60 min) was determined as 0.53 µmol/kg; in assay [2] (t = 60', 60 min) it was 0.56 µmol/kg.
